In patent US20240109881A1, “Heteroaryl Compounds as Ligand Directed Degraders of IRAK4” (Bristol-Myers Squibb Company, priority 2022, published 2024):

Target: T1, IRAK4 (Homo sapiens, UniProt Q9NWZ3)
T1 construct: endogenous in cells; host or cells: THP-1 cells
T1 sequence (Q9NWZ3 1-460): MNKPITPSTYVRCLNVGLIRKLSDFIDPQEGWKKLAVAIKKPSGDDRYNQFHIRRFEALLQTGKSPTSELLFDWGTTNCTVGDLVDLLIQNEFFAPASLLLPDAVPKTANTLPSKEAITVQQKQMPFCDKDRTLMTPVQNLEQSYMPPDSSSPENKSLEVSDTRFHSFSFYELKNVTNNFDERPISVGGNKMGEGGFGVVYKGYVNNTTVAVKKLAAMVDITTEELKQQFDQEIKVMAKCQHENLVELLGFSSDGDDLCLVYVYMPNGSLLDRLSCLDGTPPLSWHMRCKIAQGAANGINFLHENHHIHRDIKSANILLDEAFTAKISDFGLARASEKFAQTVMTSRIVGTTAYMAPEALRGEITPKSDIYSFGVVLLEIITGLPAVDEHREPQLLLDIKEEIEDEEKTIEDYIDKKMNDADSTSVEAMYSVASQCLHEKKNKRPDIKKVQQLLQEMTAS
Experiment: LVL THP1 HTRF (THP1 Homogeneous Time Resolved Fluorescence)
Format: cell-based
Details: THP1 cells, 18 h incubation with compound; for DC50: read-out: LVL THP1 HTRF EC50
Method: Cell culture media was prepared in a tissue culture hood in a sterile environment by adding 10% FBS and 1% Penicillin Streptomycin to 500 mL no phenol red RPMI 1640 media. The media was filtered through a Nalgene Bottle Top Filter and stored at 4° C.
For Homogenous Time Resolved Fluorescence (HTRF) assays, a Cisbio HTRF kit was used, which included: Lysis Buffer #1 4×, Blocking Reagent #3 100×, 20× Antibody 1 (Anti-IRAK4 d2), 20× Antibody 2 (Anti-IRAK4 k), and Detection Buffer.
The THP1 plates were prepared by the following method. For each dosing plate, a duplicate for CTG assay was prepared. Two THP-1 T-175 flasks could be used to plate one 384 well plate. The cells were collected from two T-175 flasks into 200 mL centrifuge tubes and spun down at 1200 rpm for 10 min. The supernatant was removed completely and cells were resuspended in 7.5 mL cell culture media. To 5 μL of the cell suspension was added 25 μL of media and 30 μL of Trypan Blue stain. The cells were counted using countess (automated cell counter, Thermo Fisher Scientific) twice and the viability and live cell count was recorded. The actual cell count was […] the live cell count. Based on the count, a cell suspension was prepared in colorless RPMI media for a final concentration of 7.5e6 cells/mL. Using Standard cassette multidrop combi, 20 μL of the 7.5e6 cells/mL cell stock was added to entire 384 well plate but for top half of column 1 (negative control) The multidrop combi was always primed to achieve a steady flow and washed after use with 20 mL de-ionized water followed by 20 mL alcohol. The cells were incubated in 5% CO2 incubator at 37° C.
Dosing was conducted using the following method. To dose assay plates and CTG plate was added 20 nL of compounds in DMSO using Echo (Beckman Coulter), and the plates were incubated at 37° C. for 18 h. The compound plates were spun at 1200 rpm for 1 min before dosing. The compound plate was sealed and properly stored during incubation.
After dosing, an HTRF assay was conducted using the following method. The treatment plates (IRAK4_HTRF) were centrifuged at 600 g for 10 min. Using CyBio Felix, Automated liquid handler (Analytikjena), 13 μL cell culture media was removed. To all columns, 7.5 μL lysis buffer was added, and an additional 7.5 μL of lysis buffer was added to column 1(top half, negative control). The plate was incubated on a shaker at room temperature for 2 h. The plate was spun down at 600 g for 5 min. Custom 20×IRAK4 Antibody obtained from CISBIO Anti-IRAK4-d2 (acceptor Ab) and Anti-IRAK4-K (donor Ab) were diluted to 1× antibody mix Using a multichannel repeater, 4 μL of 1× antibody mix was added to each wellThe plate was spun down at 600 g for 5 min and incubated in the dark at room temperature for 18 h The next day (after 18 hrs), HTRF assay plate was spun down at 600 g for 5 min and read at 665/615 nm using a Envision plate reader.

Compound | LVL THP1 HTRF YMIN | DC50
C[C@H](C#N)Nc1cc(-n2ncc3cc(C#N)cnc32)ncc1-n1cc([C@H]2CC[C@H](CCN3CCN(c4ccc(C5(C)CCC(=O)NC5=O)cc4)CC3)CC2)nn1 (single isomer, unassigned) [P-204] | 1.8% | 7 nM
C[C@H](C#N)Nc1cc(-n2ncc3cc(C#N)cnc32)ncc1-n1cc(C2CCC(CCN3CCN(c4ccc(C5CCC(=O)NC5=O)cc4)C4COCC43)CC2)nn1 (single isomer, unassigned) [P-235] | 2.6% | 29 nM
C[C@H](C#N)Nc1cc(-n2ncc3cc(C#N)cnc32)ncc1-n1cc(C2CCC(CCN3CCN(c4ccc(C5CCC(=O)NC5=O)cc4)C4COCC43)CC2)nn1 (single isomer, unassigned) [P-237] | 2.8% | 7 nM
C[C@H](C#N)Nc1cc(-n2ncc3cc(C#N)c(N)nc32)ncc1C(=O)N[C@H]1CC[C@H](CCN2CCN(c3ccc([C@@]4(C)CCC(=O)NC4=O)cn3)[C@@H](C)C2)CC1 (single isomer, unassigned) [P-249] | 1.9% | 2.3 nM
C[C@H](C#N)Nc1cc(-n2ncc3cc(C#N)c(N)nc32)ncc1-n1cc([C@H]2CC[C@H](CCN3[C@@H](C)CN(c4ccc([C@@]5(C)CCC(=O)NC5=O)cn4)C[C@@H]3C)CC2)nn1 (single isomer, unassigned) [P-252] | 1.7% | 5.4 nM
C[C@H](C#N)Nc1cc(-n2ncc3cc(C#N)c(N)nc32)ncc1-n1cc([C@H]2CC[C@H](CCN3[C@H](C)CN(c4ccc([C@@]5(C)CCC(=O)NC5=O)cn4)C[C@H]3C)CC2)nn1 (single isomer, unassigned) [P-253] | 9.4% | 48.7 nM
C[C@H](C#N)Nc1cc(-n2ncc3cc(C#N)c(N)nc32)ncc1-n1cc([C@H]2CC[C@H](CCN3[C@@H](C)CN(c4ccc([C@@]5(C)CCC(=O)NC5=O)cn4)C[C@@H]3C)CC2)nn1 (single isomer, unassigned) [P-254] | 91.0% | 21.7 nM
C[C@H](C#N)Nc1cc(-n2ncc3cc(C#N)c(N)nc32)ncc1-n1cc([C@H]2CC[C@H](CCN3[C@H](C)CN(c4ccc([C@@]5(C)CCC(=O)NC5=O)cn4)C[C@H]3C)CC2)nn1 (single isomer, unassigned) [P-255] | 90.4% | 12.4 nM
C[C@H](C#N)Nc1cc(-n2ncc3cc(C#N)c(N)nc32)ncc1-n1cc([C@H]2CC[C@H](CCN3CCN(c4ccc([C@@]5(C)CCC(=O)NC5=O)nc4)[C@@H](C)C3)CC2)nn1 (single isomer, unassigned) [P-257] | 34.7% | 92.8 nM

Now from value to compound:

LVL THP1 HTRF YMIN | DC50 | Compound
2.0% | 6.9 nM | C[C@H](C#N)Nc1cc(-n2ncc3cc(C#N)c(N)nc32)ncc1-n1cc([C@H]2CC[C@H](CCN3CCN(c4ccc([C@@]5(C)CCC(=O)NC5=O)cn4)[C@@H](C)C3)CC2)nn1 (single isomer, unassigned) [P-258]
89.5% | 26.1 nM | C[C@H](C#N)Nc1cc(-n2ncc3cc(C#N)c(N)nc32)ncc1-n1cc([C@H]2CC[C@H](CCN3CCN(c4ccc([C@@]5(C)CCC(=O)NC5=O)cn4)[C@@H](C)C3)CC2)nn1 (single isomer, unassigned) [P-259]
8.7% | 17.1 nM | C[C@H](C#N)Nc1cc(-n2ncc3cc(C#N)c(N)nc32)ncc1-n1cc([C@H]2CC[C@H](CCN3CCN(c4ccc([C@@]5(C)CCC(=O)NC5=O)cn4)[C@H](C)C3)CC2)nn1 (single isomer, unassigned) [P-262]
9.0% | 25.7 nM | C[C@H](C#N)Nc1cc(-n2ncc3cc(C#N)c(N)nc32)ncc1-n1cc([C@H]2CC[C@H](CCN3CCN(c4cnc([C@@]5(C)CCC(=O)NC5=O)nc4)CC3)CC2)nn1 (single isomer, unassigned) [P-263]
94.6% | 7.2 nM | C[C@H](C#N)Nc1cc(-n2ncc3cc(C#N)c(N)nc32)ncc1-n1cc([C@H]2CC[C@H](CCN3CCN(c4cnc([C@@]5(C)CCC(=O)NC5=O)nc4)CC3)CC2)nn1 (single isomer, unassigned) [P-264]
